Measurements from patent US11008290B2, “Halogenated quinoline derivatives as antimicrobial agents” (University of Florida Research Foundation, Incorporated, priority 2015, dated 2021).
Converted amounts (≈) assume the structure as drawn. Where two headings read alike, the source gives them in different places.

Key:
[1] = system: human red blood cells; test: Hemolysis assay; type: cell-based
Method: Freshly drawn human red blood cells (hRBC with ethylenediaminetetraacetic acid (EDTA) as an anticoagulant) were washed with Tris-buffered saline (0.01M Tris-base, 0.155M sodium chloride (NaCl), pH 7.2) and centrifuged for 5 minutes at 3500 rpm. The washing was repeated three times with the buffer. In 96-well plate, the test compounds were added to the buffer. […] The plate was then incubated for 1 hour at 37° C. After incubation, the plate is centrifuged for 5 minutes at 3500 rpm. Then 80 μL of the supernatant were transferred to another 96-well plate and the Optical Density (OD) was read at 405 nm. […] The percent of hemolysis was calculated as (OD405 of the compound-OD405 DMSO)/(OD405 Triton X-OD405 buffer).

[2] = system: MRSA-2 planktonic cells and biofilms; test: Calgary Biofilm Device (CBD) MBC/MBEC determination; type: cell-based, Staphylococcus aureus; settings: CBD; for MBC: Staphylococcus aureus, MRSA, planktonic killing, first value of MBC/MBEC cell
Method: (§1) Biofilm eradication experiments were performed using the Calgary Biofilm Device to determine MBC/MBEC values for various compounds of interest (Innovotech, product code: 19111). The Calgary device (96-well plate with lid containing 96 total pegs to establish biofilms; 1 peg/well) was inoculated with 125 μL of a mid-log phase culture diluted 1,000-fold in tryptic soy broth with 0.5% glucose (TSBG) to establish bacterial biofilms after incubation at 37° C. for 24 hours. The lid of the Calgary device was then removed, washed and transferred to another 96-well plate containing 2-fold serial dilutions of the test compounds (the “challenge plate”). The total volume of media with compound in each well in the challenge plate was 150 μL. The Calgary device was then incubated at 37° C. for 24 hours. The lid was then removed from the challenge plate and MBC/MBEC values were determined using different final assays. […] The MBC values were determined as the concentration giving a lack of visible bacterial growth (e.g., turbidity). For determination of MBEC values, the Calgary device lid (with attached pegs/treated biofilms) was transferred to a new 96-well plate containing 150 μL of fresh TSBG media in each well and incubated for 24 hours at 37° C. to allow viable biofilms to grow and disperse resulting in turbidity after the incubation period. […] In select experiments, treated pegs from the Calgary device were removed from lead biofilm eradicators after final incubation, sonicated for 30 minutes in PBS and plated out to determine biofilm cell killing (e.g., colony forming unit per milliliter, CFU/mL).

[3] = system: VRE (ATCC 700221) planktonic cells and biofilms; test: as above; type: cell-based, Enterococcus faecium; settings: Enterococcus, planktonic killing, CBD, first value of cell
Method: as §1

[4] = system: vancomycin-resistant Enterococcus faecium (VRE, ATCC 700221); test: Minimum inhibitory concentration (MIC) susceptibility assay, broth microdilution; type: cell-based; settings: read-out: VRE MIC
Method: (§2) The minimum inhibitory concentration (MIC) for each compound was determined by the broth microdilution method as recommended by the Clinical and Laboratory Standards Institute (CLSI). In a 96-well plate, eleven two-fold serial dilutions of each compound were made in a final volume of 100 μL Luria Broth. Each well was inoculated with ˜10^5 bacterial cells at the initial time of incubation, prepared from a fresh log phase culture (OD600 of 0.5 to 1.0 depending on bacterial strain). […] The concentration range tested for each compound during this study was 0.10 to 100 μM. DMSO served as the vehicle and negative control in each microdilution MIC assay. DMSO was serially diluted with a top concentration of 1% v/v. Bacterial strains used: methicillin-resistant Staphylococcus aureus-2 (MRSA-2; clinical isolate from Shands Hospital in Gainesville, Fla.), methicillin-resistant Staphylococcus epidermidis (MRSE; ATCC 35984), vancomycin-resistant Enterococcus faecium (VRE, ATCC 700221).

[5] = system: methicillin-resistant Staphylococcus epidermidis (MRSE; ATCC 35984); test: as above; type: cell-based; settings: read-out: MRSE MIC
Method: as §2

[6] = system: methicillin-resistant Staphylococcus aureus-2 (MRSA-2; clinical isolate); test: as above; type: cell-based
Method: as §2

[7] = system: MRSE (ATCC 35984) planktonic cells and biofilms; test: Calgary Biofilm Device (CBD) MBC/MBEC determination; type: cell-based, Staphylococcus epidermidis; settings: for MBC: Staphylococcus epidermidis, planktonic killing, CBD, first value of cell
Method: as §1

[8] = system: MRSA-2; test: Mechanistic investigations with metal(II)-cations (MIC assay with 200 μM metal salt); type: cell-based, Staphylococcus aureus; settings: MRSA-2; for MIC: Staphylococcus aureus
Method: as §2

[9] = Table 3, footnote c = lowest concentration tested, read-out: VRE MBC
[10] = Staphylococcus epidermidis, Table 3
[11] = Staphylococcus, MRSA, Table 3, at least three independent experiments, read-out: MRSA-2 MIC
[12] = Table 2, read-out: MRSA-2 Clinical Isolate MBC
[13] = Table 2, read-out: VRE ATCC 700221 MBC
[14] = Staphylococcus epidermidis, 18 h, Table 2, ATCC 35984
[15] = Staphylococcus epidermidis, Table 2, ATCC 35984
[16] = Staphylococcus, MRSA, Table 2, 2 to 6 independent experiments, read-out: MRSA-2 MIC
[17] = Table 2, read-out: MRSE ATCC 35984 MBC
[18] = change in antibacterial activity according to MIC values
[19] = Staphylococcus, MRSA, read-out: MIC

MIC ([4]; Table 3) [µM]	MIC [5, 10] [µM]	MIC [6, 11] [µM]	MIC [5, 15] [µM]	MIC [6, 16] [µM]	SMILES	% Haemolysis at 200 μM ([1]; human, 1 h, pH 7.2) [%]	MBC ([2]; Table 3, read-out: MRSA-2 MBC) [µM]	MBC [3, 9] [µM]	MBC ([7]; Table 3, read-out: MRSE MBC) [µM]	MBC [2, 12] [µM]	MBC [7, 17] [µM]	further results
–	–	–	0.3 (≈ 0.143 µg/mL)	1.56 (≈ 0.744 µg/mL)	Oc1c(Br)cc(Br)c2ccc(CNc3cc(Cl)cc(Cl)c3)nc12 [HQ-5]	–	–	–	–	62.5 (≈ 29.8 µg/mL)	1.5 (≈ 0.715 µg/mL)	MBC [3, 13]: 2 µM (≈ 0.954 µg/mL); MIC ([4]; 18 h, Table 2, ATCC 700221): 0.39 to 0.78 µM (≈ 0.186 to 0.372 µg/mL); MIC ([4]; Table 2, ATCC 700221): 0.39 µM (≈ 0.186 µg/mL); MIC [5, 14]: 0.15 to 0.3 µM (≈ 0.0715 to 0.143 µg/mL)
–	–	–	0.3 (≈ 0.133 µg/mL)	1.17 (≈ 0.518 µg/mL)	Oc1c(Br)cc(Br)c2ccc(CNc3cccc(Cl)c3)nc12 [HQ-4]	–	–	–	–	62.5 (≈ 27.7 µg/mL)	9.38 (≈ 4.15 µg/mL)	MRSA-2 MBEC ([2]; Table 3, biofilm eradication, second value of MBC/MBEC cell): equipotent biofilm eradication activities; MBC [3, 13]: 1.5 µM (≈ 0.664 µg/mL); MIC ([4]; 18 h, Table 2, ATCC 700221): 0.39 to 0.78 µM (≈ 0.173 to 0.345 µg/mL); MIC ([4]; Table 2, ATCC 700221): 0.78 µM (≈ 0.345 µg/mL); MIC [5, 14]: 0.15 to 0.3 µM (≈ 0.0664 to 0.133 µg/mL); MBEC:MBC ratio ([7]; MRSE 35984, CBD): ~1

Second part, the compound before the results:

SMILES	MIC ([4]; Table 3) [µM]	MIC [5, 10] [µM]	MIC [6, 11] [µM]	MIC [5, 15] [µM]	MIC [6, 16] [µM]	% Haemolysis at 200 μM ([1]; human, 1 h, pH 7.2) [%]	MBC ([2]; Table 3, read-out: MRSA-2 MBC) [µM]	MBC [3, 9] [µM]	MBC ([7]; Table 3, read-out: MRSE MBC) [µM]	MBC [2, 12] [µM]	MBC [7, 17] [µM]	further results
Oc1c(I)cc(I)c2ccc(CNc3ccc(Br)cc3)nc12 [RA-HQ-23]	25 (≈ 14.5 µg/mL)	12.5 (≈ 7.26 µg/mL)	25 (≈ 14.5 µg/mL)	–	–	3.3	> 1000	31.3 (≈ 18.2 µg/mL)	125 (≈ 72.6 µg/mL)	–	–	–
Oc1c(Br)cc(Br)c2ccc(CNc3ccc(Cl)cc3)nc12 [RA-HQ-13]	0.78 (≈ 0.345 µg/mL)	0.3 (≈ 0.133 µg/mL)	0.78 (≈ 0.345 µg/mL)	–	–	17.6	31.3 (≈ 13.9 µg/mL)	1.5 (≈ 0.664 µg/mL)	31.3 (≈ 13.9 µg/mL)	–	–	–
Oc1c(I)cc(I)c2ccc(CNc3ccccc3)nc12 [RA-HQ-22]	9.38 (≈ 4.71 µg/mL)	4.69 (≈ 2.35 µg/mL)	> 100	–	–	3.0	> 1000	31.3 (≈ 15.7 µg/mL)	250 (≈ 126 µg/mL)	–	–	–
Oc1c(Br)cc(Br)c2ccc(CCc3ccc(Br)cc3)nc12 [A-HQ-7]	2.35 (≈ 1.14 µg/mL)	1.17 (≈ 0.569 µg/mL)	9.38 (≈ 4.56 µg/mL)	–	–	≤1	375 (≈ 182 µg/mL)	9.38 (≈ 4.56 µg/mL)	250 (≈ 122 µg/mL)	–	–	Fold Δ (MIC w/Cu^2+) [8, 18]: +11 fold; Fold Δ (MIC w/Fe^2+) [8, 18]: +11 fold; Fold Δ (MIC w/Zn^2+) [8, 18]: −8 fold; MIC ([8]; 200 μM ammonium iron (II) sulfate hexahydrate, read-out: MIC w/Fe^2+): > 100 µM; MIC ([8]; 200 μM copper (II) sulfate, read-out: MIC w/Cu^2+): > 100 µM; MIC ([8]; 200 μM zinc (II) chloride, read-out: MIC w/Zn^2+): 1.17 µM; MIC [6, 19]: 9.38 µM (≈ 4.56 µg/mL)
N#CC(C#N)=NNc1cccc(Cl)c1 [CCCP, carbonyl cyanide m-chlorophenyl hydrazone, reference compound]	–	–	–	6.25 (≈ 1.28 µg/mL)	3.13 (≈ 0.64 µg/mL)	–	31.3 (≈ 6.4 µg/mL)	–	31.3 (≈ 6.4 µg/mL)	31.3 (≈ 6.4 µg/mL)	31.3 (≈ 6.4 µg/mL)	% Haemolysis at 200 μM ([1]; Table 2, human red blood cells, 1 hour at 37° C.): 3.5%; % Haemolysis at 200 μM ([1]; Table 3, human red blood cells): 3.5%; MIC ([5]; Table 3): 6.25 µM (≈ 1.28 µg/mL); MIC ([6]; Table 3, at least three independent experiments, read-out: MRSA-2 MIC): 3.13 µM (≈ 0.64 µg/mL)
CCCCCNCc1ccc2c(Br)cc(Br)c(O)c2n1 [RA-HQ-2]	3.13 (≈ 1.26 µg/mL)	1.56 (≈ 0.627 µg/mL)	2.35 (≈ 0.945 µg/mL)	–	–	87.9	31.3 (≈ 12.6 µg/mL)	15.6 (≈ 6.27 µg/mL)	23.5 (≈ 9.45 µg/mL)	–	–	MIC [6, 19]: 3.13 µM (≈ 1.26 µg/mL)
